The values below come from patent US12447153B2, “HER2 mutation inhibitors” (Array BioPharma Inc., priority 2021, dated 2025).

In general, IC50 refers to the concentration at which inhibition is half-maximal.

Data set [1] has as its target ErbB2 with Exon 20 YVMA insertion (HER2-YVMA) (Homo sapiens (Human), UniProt P04626, INS775YVMA). The data set can be described thus: Cellular Phosphorylation Assay, Assay 4 (constitutive ErbB2 phosphorylation, NIH 3T3 cells). To be noted: ErbB2 YVMA phosphorylation. The class given is cell-based.
The next data set deals with MDR1 (P-gp) (Homo sapiens (Human), UniProt P08183). The experiment in a line: in vitro. To be noted: pig, LLC-PK1.
Sequence of MDR1 (P-gp) (P08183 whole entry): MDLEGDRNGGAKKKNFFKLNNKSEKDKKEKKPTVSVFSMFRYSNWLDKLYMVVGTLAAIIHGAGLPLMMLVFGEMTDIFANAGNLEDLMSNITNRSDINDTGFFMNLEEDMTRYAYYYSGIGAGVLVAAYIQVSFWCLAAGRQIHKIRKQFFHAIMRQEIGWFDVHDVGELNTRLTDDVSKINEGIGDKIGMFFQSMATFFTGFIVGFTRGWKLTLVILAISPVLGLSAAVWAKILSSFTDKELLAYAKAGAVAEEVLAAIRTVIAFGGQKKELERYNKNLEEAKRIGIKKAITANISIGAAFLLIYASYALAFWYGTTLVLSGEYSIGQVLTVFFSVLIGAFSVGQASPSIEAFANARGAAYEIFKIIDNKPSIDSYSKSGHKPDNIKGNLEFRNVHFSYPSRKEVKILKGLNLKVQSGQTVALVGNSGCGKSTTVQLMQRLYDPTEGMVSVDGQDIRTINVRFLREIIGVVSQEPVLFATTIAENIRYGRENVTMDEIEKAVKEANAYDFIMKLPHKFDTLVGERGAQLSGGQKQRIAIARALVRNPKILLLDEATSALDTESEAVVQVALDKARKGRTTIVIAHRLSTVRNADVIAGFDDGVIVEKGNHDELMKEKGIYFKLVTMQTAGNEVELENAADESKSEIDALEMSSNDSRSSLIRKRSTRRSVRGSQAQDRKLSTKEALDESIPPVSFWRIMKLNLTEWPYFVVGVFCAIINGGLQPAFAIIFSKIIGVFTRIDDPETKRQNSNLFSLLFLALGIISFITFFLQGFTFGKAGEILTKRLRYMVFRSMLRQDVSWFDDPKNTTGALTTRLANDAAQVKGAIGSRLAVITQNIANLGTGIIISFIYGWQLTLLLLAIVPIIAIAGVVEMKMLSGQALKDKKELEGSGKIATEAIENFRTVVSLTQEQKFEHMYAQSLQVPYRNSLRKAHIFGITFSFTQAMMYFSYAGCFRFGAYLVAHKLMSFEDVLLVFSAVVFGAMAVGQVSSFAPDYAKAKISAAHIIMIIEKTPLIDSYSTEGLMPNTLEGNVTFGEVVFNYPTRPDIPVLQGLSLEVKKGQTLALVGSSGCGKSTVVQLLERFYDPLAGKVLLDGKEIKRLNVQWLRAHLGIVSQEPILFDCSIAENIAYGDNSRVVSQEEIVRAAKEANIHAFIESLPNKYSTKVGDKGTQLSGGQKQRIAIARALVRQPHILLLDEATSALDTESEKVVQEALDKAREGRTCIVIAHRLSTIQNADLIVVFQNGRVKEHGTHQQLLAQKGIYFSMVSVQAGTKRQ
The target in a further data set is EGFR wild type (EGFR WT) (Homo sapiens (Human), UniProt P00533). The data set can be described thus: Cellular Phosphorylation Assay, Assay 5 (EGF-stimulated EGFR phosphorylation, NIH 3T3 cells). As to conditions: EGF-stimulated EGFR WT phosphorylation. The class given is cell-based.
For another data set, the target named is ErbB2 WT (Homo sapiens (Human), UniProt P04626). The experiment in a line: ErbB Enzyme Assay (HTRF KinEASE-TK), Assay 2. To be noted: ErbB2 WT enzyme. The class given is biochemical. On the technique in general: Time-resolved FRET reads energy transfer from a long-lived donor to a nearby acceptor.
Sequence of ErbB2 WT (P04626 23-1255): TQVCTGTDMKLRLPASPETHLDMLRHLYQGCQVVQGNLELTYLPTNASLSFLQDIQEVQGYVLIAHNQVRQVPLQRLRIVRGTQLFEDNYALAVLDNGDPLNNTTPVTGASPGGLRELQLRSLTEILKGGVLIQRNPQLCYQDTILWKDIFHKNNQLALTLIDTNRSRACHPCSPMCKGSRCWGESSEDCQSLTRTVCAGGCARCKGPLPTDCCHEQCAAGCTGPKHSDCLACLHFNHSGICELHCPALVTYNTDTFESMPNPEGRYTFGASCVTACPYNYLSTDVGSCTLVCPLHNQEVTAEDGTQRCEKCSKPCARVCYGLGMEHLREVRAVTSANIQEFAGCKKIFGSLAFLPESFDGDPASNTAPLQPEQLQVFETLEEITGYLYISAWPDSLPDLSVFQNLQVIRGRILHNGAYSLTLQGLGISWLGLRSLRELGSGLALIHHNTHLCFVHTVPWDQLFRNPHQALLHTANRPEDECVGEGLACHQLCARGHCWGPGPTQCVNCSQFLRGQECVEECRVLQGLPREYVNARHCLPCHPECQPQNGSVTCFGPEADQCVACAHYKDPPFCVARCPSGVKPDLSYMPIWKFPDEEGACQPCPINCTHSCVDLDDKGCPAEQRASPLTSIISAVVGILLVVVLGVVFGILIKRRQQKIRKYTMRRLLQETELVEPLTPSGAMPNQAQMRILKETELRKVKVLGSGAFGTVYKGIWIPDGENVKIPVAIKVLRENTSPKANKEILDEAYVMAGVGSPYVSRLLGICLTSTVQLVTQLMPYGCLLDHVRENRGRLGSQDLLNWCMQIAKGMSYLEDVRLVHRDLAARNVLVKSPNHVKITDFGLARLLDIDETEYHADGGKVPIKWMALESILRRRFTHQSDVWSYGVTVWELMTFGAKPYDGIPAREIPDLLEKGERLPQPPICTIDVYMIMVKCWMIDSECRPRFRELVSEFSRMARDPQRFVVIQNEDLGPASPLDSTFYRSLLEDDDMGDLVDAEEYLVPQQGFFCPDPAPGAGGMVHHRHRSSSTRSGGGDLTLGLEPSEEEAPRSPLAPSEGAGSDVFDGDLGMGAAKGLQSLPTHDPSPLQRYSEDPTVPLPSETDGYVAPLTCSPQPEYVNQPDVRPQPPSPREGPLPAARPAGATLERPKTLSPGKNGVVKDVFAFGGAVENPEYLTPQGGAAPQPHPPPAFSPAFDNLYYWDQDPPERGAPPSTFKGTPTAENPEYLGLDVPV
Another data set addresses EGFR (Homo sapiens (Human), UniProt P00533). The experiment in a line: ErbB Enzyme Assay (HTRF KinEASE-TK), Assay 3. Type of data set: biochemical. As to conditions: EGFR enzyme.
For another data set, the target named is BCRP (Homo sapiens (Human), UniProt Q9UNQ0). The experiment in a line: BCRP MDCKII efflux assay (Assay 7). To be noted: dog; efflux ratio Papp(B-A)/Papp(A-B), BCRP MDCKII cells; read-out: Assay 7 Pe Ratio. Type of data set: in vitro ADME. The method, then:
Assay conditions included with and without the BCRP-specific inhibitor, KO143, at a concentration of 0.3 μM to ascertain the contribution of BCRP to the efflux value of the test compound.
Final organic concentration in the assay was 1%.

Sequence of BCRP (Q9UNQ0 whole entry): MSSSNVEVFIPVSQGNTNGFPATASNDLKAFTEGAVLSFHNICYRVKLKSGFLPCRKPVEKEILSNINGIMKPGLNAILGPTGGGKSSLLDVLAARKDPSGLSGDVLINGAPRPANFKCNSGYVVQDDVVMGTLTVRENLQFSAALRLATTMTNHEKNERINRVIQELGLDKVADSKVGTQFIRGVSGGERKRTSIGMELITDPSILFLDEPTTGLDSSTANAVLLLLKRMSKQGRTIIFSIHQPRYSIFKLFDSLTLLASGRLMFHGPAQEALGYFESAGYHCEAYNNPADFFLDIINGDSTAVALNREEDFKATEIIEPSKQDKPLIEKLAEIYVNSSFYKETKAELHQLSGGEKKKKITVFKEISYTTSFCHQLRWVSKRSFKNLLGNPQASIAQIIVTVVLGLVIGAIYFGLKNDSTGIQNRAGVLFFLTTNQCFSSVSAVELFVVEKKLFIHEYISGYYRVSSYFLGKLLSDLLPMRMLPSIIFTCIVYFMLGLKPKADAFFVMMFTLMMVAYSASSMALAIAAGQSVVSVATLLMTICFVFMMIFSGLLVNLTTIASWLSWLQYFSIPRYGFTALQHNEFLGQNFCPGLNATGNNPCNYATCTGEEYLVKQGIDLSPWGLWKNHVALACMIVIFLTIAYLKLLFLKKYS
Sequence of ErbB2 with Exon 20 YVMA insertion (HER2-YVMA) (P04626 other isoform, or with tags, fused parts or gaps ins YVMA behind 775): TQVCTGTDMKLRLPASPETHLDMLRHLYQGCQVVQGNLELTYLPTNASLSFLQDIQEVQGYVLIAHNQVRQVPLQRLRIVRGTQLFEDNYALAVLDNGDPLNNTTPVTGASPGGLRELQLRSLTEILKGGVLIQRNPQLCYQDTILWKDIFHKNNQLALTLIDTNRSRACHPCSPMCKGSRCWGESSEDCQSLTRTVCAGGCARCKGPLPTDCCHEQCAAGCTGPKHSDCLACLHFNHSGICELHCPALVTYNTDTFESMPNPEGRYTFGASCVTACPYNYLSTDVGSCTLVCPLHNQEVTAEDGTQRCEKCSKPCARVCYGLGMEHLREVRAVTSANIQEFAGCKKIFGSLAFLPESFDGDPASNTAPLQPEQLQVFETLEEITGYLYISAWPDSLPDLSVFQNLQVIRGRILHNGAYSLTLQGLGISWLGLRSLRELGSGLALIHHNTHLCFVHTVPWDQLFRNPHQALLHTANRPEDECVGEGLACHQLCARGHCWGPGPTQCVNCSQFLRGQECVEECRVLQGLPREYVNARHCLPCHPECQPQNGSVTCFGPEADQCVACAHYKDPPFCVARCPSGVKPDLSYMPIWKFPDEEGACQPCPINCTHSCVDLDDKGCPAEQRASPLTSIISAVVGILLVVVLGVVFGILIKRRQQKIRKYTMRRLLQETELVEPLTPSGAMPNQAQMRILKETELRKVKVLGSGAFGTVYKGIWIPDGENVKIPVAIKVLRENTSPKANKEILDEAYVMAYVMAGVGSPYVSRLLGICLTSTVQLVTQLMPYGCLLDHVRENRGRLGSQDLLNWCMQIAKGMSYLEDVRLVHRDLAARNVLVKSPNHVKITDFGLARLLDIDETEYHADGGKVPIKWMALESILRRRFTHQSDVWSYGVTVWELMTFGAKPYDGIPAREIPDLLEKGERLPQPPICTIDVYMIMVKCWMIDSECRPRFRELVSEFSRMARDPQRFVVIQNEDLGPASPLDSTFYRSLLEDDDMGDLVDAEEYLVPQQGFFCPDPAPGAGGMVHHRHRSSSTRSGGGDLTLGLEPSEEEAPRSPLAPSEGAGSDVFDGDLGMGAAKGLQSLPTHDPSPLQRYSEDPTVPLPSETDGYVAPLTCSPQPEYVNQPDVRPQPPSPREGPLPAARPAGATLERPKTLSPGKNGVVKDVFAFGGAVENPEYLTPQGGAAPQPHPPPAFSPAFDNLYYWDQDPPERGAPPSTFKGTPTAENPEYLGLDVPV
Protocol for MDR1 (P-gp): Both LLC-PK1 and MDR1 transfected LLC-PK1 cells were cultured and plated according to manufacturer's recommendations with the exception that the passage media contained only 2% fetal bovine serum so as to extend passage time out to seven days.
Both positive and negative controls were used to assess functionality of P-gp or BCRP efflux in the assays. Stock solutions for assay controls and the test article were prepared in DMSO for final test concentrations of 10 μM and 1 μM, respectively. Final organic concentration in the assay was 1%. All dosing solutions contained 10 μM lucifer yellow to monitor LLC PK1 or MDCKII cell monolayer integrity.
For the apical to basolateral determination (A to B), 75 μL of the test article in transport buffer were added to the apical side of the individual transwells and 250 μL of basolateral media, without compound or lucifer yellow, were added to each well. For the basolateral to apical determination (B to A), 250 μL of test article in transport buffer were added to each well and 75 μL transport buffer, without compound or lucifer yellow, were added to each transwell. All tests were performed in triplicate, and each compound was tested for both apical to basolateral and basolateral to apical transport. The plates were incubated for 2 hours on a Lab-Line Instruments Titer Orbital Shaker (VWR, West Chester, PA) at 50 rpm and 37° C. with 5% CO2. All culture plates were removed from the incubator, 50 μL of media were removed from the apical and basolateral portion of each well, and added to 150 μL of 1 μM labetalol in 2:1 acetonitrile (ACN): H2O, v/v.
The plates were read using a Molecular Devices (Sunnyvale, CA) Gemini Fluorometer to evaluate the lucifer yellow concentrations at excitation/emission wavelengths of 425/535 nm. These values were accepted when found to be below 2% for apical to basolateral and 5% basolateral to apical flux across the MDR1-transfected LLC-PK1 or BCRP-transfected MDCKII cell monolayers. The plates were sealed, and the contents of each well analyzed by LC MS/MS. The compound concentrations were determined from the ratio of the peak areas of the compound to the internal standard (labetalol) in comparison to the dosing solution.
The LC-MS/MS system was comprised of an HTS-PAL autosampler (Leap Technologies, Carrboro, NC), an HP1200 HPLC (Agilent, Palo Alto, CA), and a MDS Sciex 4000 Q Trap system (Applied Biosystems, Foster City, CA). […] The total run time, including re-equilibration, for a single injection was 1.2 minutes. Mass spectrometric detection of the analytes was accomplished using the ion spray positive mode. Analyte responses were measured by multiple reaction monitoring (MRM) of transitions unique to each compound (the protonated precursor ion and selected product ions for each test article and m/z 329 to m/z 162 for labetalol, the internal standard).
An efflux ratio is calculated from the mean apical to basolateral (A-B) Papp data and basolateral to apical (B-A) Papp data: Efflux ratio=Papp(B−A)/Papp(A−B)

As to `C=CC(=O)N1C2CC1CN(c1ccc3ncnc(Nc4cc(C)c(Oc5ccn6ncnc6c5)cc4F)c3n1)C2` [Example 43, 1-(3-(4-((4-([1,2,4]triazolo[1,5-a]pyridin-7-yloxy)-2-fluoro-5-methylphenyl)amino)pyrido[3,2-d]pyrimidin-6-yl)-3,6-diazabicyclo[3.1.1]heptan-6-yl)prop-2-en-1-one], the IC50 in data set [1] is 21.3 nM; against EGFR wild type (EGFR WT) it was no less than 5000 nM; against ErbB2 WT, 120 nM; at EGFR, no less than 10000 nM. For the same molecule, the efflux ratio at 2 h, 1 µM came out at 3 on MDR1 (P-gp) and 4.1 at BCRP.

Regarding `C=CC(=O)N1CC2CC(C1)N2c1ccc2ncnc(Nc3cc(Cl)c(Oc4ccn5ncnc5c4)cc3F)c2n1` [Example 45, 1-(6-(4-((4-([1,2,4]triazolo[1,5-a]pyridin-7-yloxy)-5-chloro-2-fluorophenyl)amino)pyrido[3,2-d]pyrimidin-6-yl)-3,6-diazabicyclo[3.1.1]heptan-3-yl)prop-2-en-1-one], the IC50 in data set [1] is 17.1 nM; at EGFR wild type (EGFR WT), 2760 nM; against ErbB2 WT it was 222 nM; against EGFR it was 8300 nM. The efflux ratio at 2 h, 1 µM on MDR1 (P-gp) came out at 2.5; on BCRP, 5.6.

Consider `C=CC(=O)N1CC2CC(C1)N2c1ccc2ncnc(Nc3ccc(Oc4ccn5ncnc5c4)c(C)c3F)c2n1` [Example 46, 1-(6-(4-((4-([1,2,4]triazolo[1,5-a]pyridin-7-yloxy)-2-fluoro-3-methylphenyl)amino)pyrido[3,2-d]pyrimidin-6-yl)-3,6-diazabicyclo[3.1.1]heptan-3-yl)prop-2-en-1-one], for which the IC50 was 18.2 nM in data set [1], 2100 nM against EGFR wild type (EGFR WT), 119 nM on ErbB2 WT and 1270 nM on EGFR. Also, the efflux ratio at 2 h, 1 µM at MDR1 (P-gp) and at BCRP was 2.5 each time.

As to `C=CC(=O)N1CC[C@H]2CN(c3ccc4ncnc(Nc5ccc(Oc6ccn7ncnc7c6)c(Cl)c5F)c4n3)C[C@H]21` [Example 49, 1-((3aS,6aS)-5-(4-((4-([1,2,4]triazolo[1,5-a]pyridin-7-yloxy)-3-chloro-2-fluorophenyl)amino)pyrido[3,2-d]pyrimidin-6-yl)hexahydropyrrolo[3,4-b]pyrrol-1(2H)-yl)prop-2-en-1-one], the IC50 in data set [1] worked out at 10.5 nM; against EGFR wild type (EGFR WT) it was 2810 nM; against ErbB2 WT it was 18.6 nM; against EGFR, 1170 nM. In addition, the efflux ratio at 2 h, 1 µM at MDR1 (P-gp) worked out at 1.5; on BCRP, 3.

`C=CC(=O)N1CCC(Sc2ccc3ncnc(Nc4cc(C)c(Oc5ccc6c(c5)ncn6C)cc4F)c3n2)CC1` [Example 64, 1-(4-((4-((2-fluoro-5-methyl-4-((1-methyl-1H-benzo[d]imidazol-5-yl)oxy)phenyl)amino)pyrido[3,2-d]pyrimidin-6-yl)thio)piperidin-1-yl)prop-2-en-1-one]: the IC50 is 32.9 nM in data set [1], no less than 5000 nM against EGFR wild type (EGFR WT), 37.4 nM against ErbB2 WT and no less than 10000 nM at EGFR. Besides, the efflux ratio at 2 h, 1 µM on MDR1 (P-gp) was 2.4; at BCRP, 4.2.

As for `C=CC(=O)N1CC[C@@H]2C[C@H]1CN2c1ccc2ncnc(Nc3ccc(Oc4ccn5ncnc5c4)c(C)c3F)c2n1` [Example 65, 1-((1S,5R)-6-(4-((4-([1,2,4]triazolo[1,5-a]pyridin-7-yloxy)-2-fluoro-3-methylphenyl)amino)pyrido[3,2-d]pyrimidin-6-yl)-2,6-diazabicyclo[3.2.1]octan-2-yl)prop-2-en-1-one], the IC50 in data set [1] came to 4.2 nM; against EGFR wild type (EGFR WT), 146 nM; on ErbB2 WT it was 17.4 nM; against EGFR, 170 nM. For the same molecule, the efflux ratio at 2 h, 1 µM at MDR1 (P-gp) amounted to 1.4; at BCRP, 4.

Take `C=CC(=O)N1CCCN(c2ccc3ncnc(Nc4ccc(Oc5ccc6c(c5)ncn6C)c(C)c4F)c3n2)CC1(C)C` [Example 69, 1-(4-(4-((2-fluoro-3-methyl-4-((1-methyl-1H-benzo[d]imidazol-5-yl)oxy)phenyl)amino)pyrido[3,2-d]pyrimidin-6-yl)-2,2-dimethyl-1,4-diazepan-1-yl)prop-2-en-1-one]: the IC50 was 19.9 nM in data set [1], no less than 5000 nM at EGFR wild type (EGFR WT), 141 nM on ErbB2 WT and no less than 10000 nM at EGFR. Further, the efflux ratio at 2 h, 1 µM on MDR1 (P-gp) was determined as 3; at BCRP, 2.4.

Take `C=CC(=O)N1CCN(c2ccc3ncnc(Nc4cc(C)c(Oc5ccn6ncnc6c5)cc4F)c3n2)CC1(C)C` [Example 73, 1-(4-(4-((4-([1,2,4]triazolo[1,5-a]pyridin-7-yloxy)-2-fluoro-5-methylphenyl)amino)pyrido[3,2-d]pyrimidin-6-yl)-2,2-dimethylpiperazin-1-yl)prop-2-en-1-one]: the concentration for half-maximal inhibition (IC50) in data set [1] was found to be 28.9 nM; at EGFR wild type (EGFR WT) it was 2420 nM; against ErbB2 WT, 36.4 nM; on EGFR, 5080 nM. In addition, the results for the efflux ratio at 2 h, 1 µM on MDR1 (P-gp) and on BCRP were 1.1 and 4.3, respectively.

Consider `C=CC(=O)N1CCN(c2ccc3ncnc(Nc4cc(C)c(Oc5ccc6c(c5)ncn6C)cc4F)c3n2)CC1(C)C` [Example 82, 1-(4-(4-((2-fluoro-5-methyl-4-((1-methyl-1H-benzo[d]imidazol-5-yl)oxy)phenyl)amino)pyrido[3,2-d]pyrimidin-6-yl)-2,2-dimethylpiperazin-1-yl)prop-2-en-1-one], for which the IC50 in data set [1] was 12.6 nM; on EGFR wild type (EGFR WT), 4400 nM; on ErbB2 WT, 58.2 nM; on EGFR it was 7320 nM. The efflux ratio at 2 h, 1 µM was determined as 2 on MDR1 (P-gp) and 3.9 at BCRP.

Consider `C=CC(=O)N1C[C@@H]2C[C@H]1CN2c1ccc2ncnc(Nc3ccc(Oc4ccc5c(c4)ncn5C)c(C)c3F)c2n1` [Example 84, 1-((1S,4S)-5-(4-((2-fluoro-3-methyl-4-((1-methyl-1H-benzo[d]imidazol-5-yl)oxy)phenyl)amino)pyrido[3,2-d]pyrimidin-6-yl)-2,5-diazabicyclo[2.2.1]heptan-2-yl)prop-2-en-1-one], for which the IC50 in data set [1] came to 7.7 nM; at EGFR wild type (EGFR WT), 254 nM; on ErbB2 WT it was 41 nM; on EGFR it was 221 nM. For the same molecule, the figures for the efflux ratio at 2 h, 1 µM on MDR1 (P-gp) and at BCRP were 1.9 and 3.8, respectively.

On to `C=CC(=O)N1CCN(c2ccc3ncnc(Nc4ccc(Oc5ccn6ncnc6c5)c(C)c4F)c3n2)CC1` [Example 96, 1-(4-(4-((4-([1,2,4]triazolo[1,5-a]pyridin-7-yloxy)-2-fluoro-3-methylphenyl)amino)pyrido[3,2-d]pyrimidin-6-yl)piperazin-1-yl)prop-2-en-1-one], for which the IC50 came out at 6.8 nM in data set [1], 538 nM at EGFR wild type (EGFR WT), 16.7 nM at ErbB2 WT and 835 nM at EGFR. Besides, the values for the efflux ratio at 2 h, 1 µM on MDR1 (P-gp) and on BCRP were 1.8 and 6.1, respectively.

In the case of `C=CC(=O)N1CC2(C1)CN(c1ccc3ncnc(Nc4ccc(Oc5ccn6ncnc6c5)c(Cl)c4F)c3n1)C2` [Example 101, 1-(6-(4-((4-([1,2,4]triazolo[1,5-a]pyridin-7-yloxy)-3-chloro-2-fluorophenyl)amino)pyrido[3,2-d]pyrimidin-6-yl)-2,6-diazaspiro[3.3]heptan-2-yl)prop-2-en-1-one], the IC50 in data set [1] was 32 nM; at EGFR wild type (EGFR WT), no less than 5000 nM; on ErbB2 WT it was 39.2 nM; at EGFR it was 1380 nM. The efflux ratio at 2 h, 1 µM at MDR1 (P-gp) came to 1.9; at BCRP, 2.5.

Turning to `C=CC(=O)N1C[C@H]2C[C@@H]1CN(c1ccc3ncnc(Nc4cc(Cl)c(Oc5ccc6c(c5)ncn6C)cc4F)c3n1)C2` [Example 107, 1-((1S,5R)-3-(4-((5-chloro-2-fluoro-4-((1-methyl-1H-benzo[d]imidazol-5-yl)oxy)phenyl)amino)pyrido[3,2-d]pyrimidin-6-yl)-3,6-diazabicyclo[3.2.1]octan-6-yl)prop-2-en-1-one], the half-maximal inhibitory concentration (IC50) was 17.8 nM in data set [1], no less than 5000 nM against EGFR wild type (EGFR WT), 237 nM against ErbB2 WT and no less than 10000 nM on EGFR. Also, the efflux ratio at 2 h, 1 µM turned out to be 1.6 at MDR1 (P-gp) and 2.7 at BCRP.

For the molecule `C=CC(=O)N1C[C@@H]2C[C@H]1CN(c1ccc3ncnc(Nc4ccc(Oc5ccc6c(c5)ncn6C)c(C)c4F)c3n1)C2` [Example 109, 1-((1R,5S)-3-(4-((2-fluoro-3-methyl-4-((1-methyl-1H-benzo[d]imidazol-5-yl)oxy)phenyl)amino)pyrido[3,2-d]pyrimidin-6-yl)-3,6-diazabicyclo[3.2.1]octan-6-yl)prop-2-en-1-one], the IC50 is 13.4 nM in data set [1], no less than 5000 nM against EGFR wild type (EGFR WT), 282 nM against ErbB2 WT and no less than 10000 nM against EGFR. In addition, the efflux ratio at 2 h, 1 µM on MDR1 (P-gp) and on BCRP was 2 each time.

Consider `C=CC(=O)N1[C@H](C)CN(c2ccc3ncnc(Nc4cc(C)c(Oc5ccc6c(c5)ncn6C)cc4F)c3n2)C[C@@H]1C` [Example 112, 1-((2S,6R)-4-(4-((2-fluoro-5-methyl-4-((1-methyl-1H-benzo[d]imidazol-5-yl)oxy)phenyl)amino)pyrido[3,2-d]pyrimidin-6-yl)-2,6-dimethylpiperazin-1-yl)prop-2-en-1-one], for which the IC50 in data set [1] is 19.8 nM; against EGFR wild type (EGFR WT), no less than 5000 nM; at ErbB2 WT it was 57.5 nM; against EGFR, 3330 nM. For the same molecule, the efflux ratio at 2 h, 1 µM at MDR1 (P-gp) was found to be 1.4; on BCRP, 5.2.
